Drawing on patent US20230278972A1, “SUBSTITUTED HALOALKYL SULFONANILIDE HERBICIDES” (FMC Corporation, priority 2020, published 2023), this text covers pest or weed control and plant injury for two compounds.

Like-named read-outs stand apart in the source and are kept apart here.

The subject of assay [1] is Ryegrass, Italian (Italian ryegrass, Lolium multiflorum). The experiment in a line: Test A preemergence, Ryegrass, Italian. The format is in vivo. The conditions noted are these: Lolium multiflorum, pre-emergence, 240 h, Preemergence; for pest or weed control at 125 g/ha: 125 g ai/ha, visual injury, 0 to 100 scale (0 no effect, 100 complete control), approx. 10 days, read-out: Plant response rating, Ryegrass, Italian; for pest or weed control at 500 g/ha: 500 g ai/ha, visual injury on 0 to 100 scale (0 no effect, 100 complete control), approximately 10 days, read-out: Ryegrass, Italian plant response rating. The essentials: (§1)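 Seeds are sown in loam mixed with sand and sprayed on the soil surface right after planting for the preemergence test. Postemergence pots are sprayed once seedlings reach 2 to 10 cm at the one- to two-leaf stage. The same surfactant-containing, non-phytotoxic solvent formulation serves both.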

Assay [2] relates to blackgrass (Alopecurus myosuroides). The experiment in a line: Test A postemergence, blackgrass. The format is in vivo. The conditions noted are these: Alopecurus myosuroides, post-emergence, 240 h, Postemergence, 0 to 100 scale (0 no effect, 100 complete control); for pest or weed control at 125 g/ha: 125 g ai/ha; for pest or weed control at 500 g/ha: 500 g ai/ha. The essentials:
as §1

Assay [3] concerns galium (catchweed bedstraw, Galium aparine). The assay can be described thus: Test A postemergence, galium. The format is in vivo. The conditions noted are these: Galium, post-emergence, 240 h, Postemergence, 0 to 100 scale (0 no effect, 100 complete control); for pest or weed control at 125 g/ha: 125 g ai/ha; for pest or weed control at 500 g/ha: 500 g ai/ha. Summed up: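 Directed soil spray at planting gave the preemergence treatment, while foliar application to one- to two-leaf seedlings (2–10 cm) gave the postemergence one; pots held a loam and sand mixture and chemicals were carried in a non-phytotoxic solvent with surfactant.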

The test system of the next assay is rice (Oryza sativa). The assay can be described thus: Test B flooded paddy test, rice. The conditions noted are these: 336 h, read-out: Plant response rating, Rice.
In assay [4] the test system is barnyardgrass (Echinochloa crus-galli). The experiment in a line: Test B flooded paddy test, barnyardgrass. The conditions noted are these: 336 h, read-out: Plant response rating, Barnyardgrass.
[5] abbreviates: read-out: Plant response rating, Blackgrass.
The mark [6] stands for this setting: read-out: Plant response rating, Galium.

In the case of `Cc1cc(Cl)c(NS(=O)(=O)C(F)(F)F)cc1C(=O)N1CCC(F)(F)CC1` [Compound 229, N-[2-Chloro-5-[(4,4-difluoro-1-piperidinyl)carbonyl]-4-methylphenyl]-1,1,1-trifluoromethanesulfonamide], the pest or weed control at 125 g/ha in assay [1] was determined as 60%; in assay [2] (setting [5]) it was 20%; in assay [3] (setting [6]), 90%. In addition, the pest or weed control at 500 g/ha in assay [1] was determined as 90%; in assay [2] (visual injury vs untreated controls after approx. 10 days, read-out: Blackgrass plant response rating) it was 70%; in assay [3] (visual injury vs untreated controls after approx. 10 days, read-out: Galium plant response rating), 90%. Besides, the plant injury at 250 g/ha in the assay on rice (Oryza sativa) is 10%. Further, the pest or weed control at 250 g/ha in assay [4] was 10%.

For `Cc1cc(C)c(C(=O)N2CCC(F)(F)CC2)cc1NS(=O)(=O)C(F)(F)F` [Compound 241, N-[5-[(4,4-Difluoro-1-piperidinyl)carbonyl]-2,4-dimethylphenyl]-1,1,1-trifluoromethanesulfonamide], the pest or weed control at 125 g/ha in assay [1] turned out to be 70%; in assay [2] (setting [5]) it was 0%; in assay [3] (setting [6]), 80%. Also, the pest or weed control at 500 g/ha stood at 100% in assay [1]; 80% in assay [2] (visual injury approx. 10 days, read-out: Plant response rating, Blackgrass); 90% in assay [3] (visual injury approx. 10 days, read-out: Plant response rating, Galium). Further, the plant injury at 250 g/ha in the assay on rice (Oryza sativa) was 25%. Also, the pest or weed control at 250 g/ha in assay [4] was found to be 25%.
